{"source": "patent US6369003B1", "about": "“Process and composition for soil improvement by reducing microbially formed ethylene in the soil” (BASF Aktiengesellschaft, priority 1994, dated 2002)", "key": {"Peas (Field Peas VNS)": {"test_system": "Peas (Field Peas VNS)", "test": "Peas test 2c: root nodules, root and shoot biomass, greenhouse", "format": "in vivo, Pisum sativum", "details": "30 days after treatment; for Nodules: untreated 6.1; for Dry matter root: untreated 275; for Dry matter shoot: untreated 459", "protocol": "In these tests various types of non-sterile soils were used. The cultivation of the plants was carried out under greenhouse or climatic chamber conditions. The active compounds according to the invention were applied uniformly distributed over the soil surface in an aqueous preparation after the emergence of the respective test plants. The supply of water for the plants was carrried out using the same technique, always paying attention to uniform moistness of the soil. In the case of the cultivation of legumes, defined amounts of species-specific Rhizobia were admixed to the soil. In some cases inoculation was also carried out by seed treatment. c) Peas (Field Peas VNS) were cultivated under greenhouse conditions in low N, sandy loam soil in plastic pots (750 ml) and watered from above as required. A few days after emergence the plants were thinned out to 7 plants per pot. In 5 pots in each case 25 ml each of an aqueous preparation of one concentration of 2.3.1.3 were applied by watering. 5 pots remained untreated. 30 days after treatment the following results were obtained: […]"}, "[1]": {"test_system": "Peas (Kleine Rheinländerin)", "test": "Peas test 2b: biomass and root nodules, greenhouse", "format": "in vivo, Pisum sativum", "details": "12 days after treatment; for Dry matter (shoot + root): control 2.55; for Nodules: control 20", "protocol": "(§1) In these tests various types of non-sterile soils were used. The cultivation of the plants was carried out under greenhouse or climatic chamber conditions. The active compounds according to the invention were applied uniformly distributed over the soil surface in an aqueous preparation after the emergence of the respective test plants. The supply of water for the plants was carrried out using the same technique, always paying attention to uniform moistness of the soil. In the case of the cultivation of legumes, defined amounts of species-specific Rhizobia were admixed to the soil. In some cases inoculation was also carried out by seed treatment.\nb) Peas (Kleine Rheinländerin) were cultivated under greenhouse conditions in low N Limburgerhof soil in plastic pots (500 ml) and watered from above as required (constant weight). A few days after emergence the plants were thinned out to 5 plants per pot.\n(§2) In four pots in each case aqueous active compound solutions of one concentration of 2.3.1.3 were applied by watering. Four pots remained untreated.\n12 days after treatment the following results were obtained: […]"}, "[2]": {"test_system": "Soybean plants (Delta Pine 415)", "test": "Soybeans test 3b: root nodules, greenhouse", "format": "in vivo, Glycine max", "details": "untreated 47", "protocol": "as §1\n(§3) a) Soybean plants (Delta Pine 415) were cultivated under greenhouse conditions in low N Limburgerhof soil in plastic pots (500 ml) and watered from above as required. A few days after emergence the plants were thinned out to 5 plants per pot.\n(§4) In 8 pots in each case per test member an aqueous active compound solution of 2.3.1.3 was applied by watering. 16 pots remained untreated in each case.\nb) Test procedure as in 3 a) active compound 2.3.1.3"}, "[3]": {"test_system": "Groudnuts of the variety Florigiant", "test": "Field test: seed yield and seed quality in groundnuts", "format": "in vivo, Arachis hypogaea", "details": "for Seeds of the highest quality level: relative, untreated = 100 (38.0 %); for Yield of groundnuts: untreated = 100 (45.4 dt/ha)", "protocol": "The tests a) and b) were carried out under conditions like those in practice in 1993 on the field test site of BASF Corporation in Holly Springs, N.C., USA. This location is distinguished by a medium-heavy soil (sandy loam). Groudnuts of the variety Florigiant were used. Treatment was carried out 20, 27 and 34 days after emergence of the plants. For treatment, the soil between the rows was sprayed with an aqueous preparation of the active compound 2.3.1.3. Immediately after application the active compound was washed into the soil by spray irrigation with 20 mm of water. The spray irrigation was also used to wash off active compound which had possibly reached the leaves. Harvesting of the plants at full maturity gave the following results: […]"}, "[4]": {"test_system": "Soybean plants (Delta Pine 415)", "test": "Soybeans test 3a: root nodules and total N, greenhouse", "format": "in vivo, Glycine max", "details": "after 3 weeks; for Nodules: untreated 49", "protocol": "as §1, §3, §4"}, "[5]": {"test_system": "Peas (Kleine Rheinländerin)", "test": "Peas test 2a: biomass, root nodules, nitrogen assimilation, greenhouse", "format": "in vivo, Pisum sativum", "details": "3 weeks after treatment; for Dry matter (shoot + root): control 3.3; for Nodules: control 13; for Total N (total nitrogen in shoot + root): control 78.5", "protocol": "as §1\na) Peas (Kleine Rheinländerin) were cultivated under greenhouse conditions in low N Limburgerhof soil in plastic pots (500 ml) and watered from above as required (a constant weight was maintained here). A few days after emergence the plants were thinned out to 5 plants per pot.\nas §2\n3 weeks after treatment the following results were obtained: […]"}, "rape (Petranova)": {"test_system": "rape (Petranova)", "test": "Promotion of shoot growth of rape, greenhouse", "format": "in vivo", "details": "applied by watering 10 days after sowing; 3 weeks after treatment", "protocol": "as §1\nWheat (Ralle) and rape (Petranova) plants were cultured under greenhouse conditions in low N Limburgerhof soil in plastic pots (500 ml) and watered from above as required. The water content of the soil here was about 80% of the maximum water capacity. A few days after emergence the plants were thinned out to 40 plants per pot.\n10 days after sowing aqueous preparations of 2.3.1.3 were applied by watering to 8 pots per test series in each case. 16 pots in each case remained untreated. 3 weeks after treatment the fresh shoot weight of the plants was determined."}, "[6]": {"details": "10 g/ha of a.s., treated 20 days after emergence"}, "[7]": {"details": "10 g/ha of a.s., treated 27 days after emergence"}, "[8]": {"details": "10 g/ha of a.s., treated 34 days after emergence"}, "[9]": {"details": "100 g/ha of a.s., treated 20 days after emergence"}, "[10]": {"details": "100 g/ha of a.s., treated 27 days after emergence"}, "[11]": {"details": "100 g/ha of a.s., treated 34 days after emergence"}, "[12]": {"details": "1000 g/ha of a.s., treated 20 days after emergence"}, "[13]": {"details": "1000 g/ha of a.s., treated 27 days after emergence"}, "[14]": {"details": "1000 g/ha of a.s., treated 34 days after emergence"}}, "data": [{"smiles": "COC(=O)COC(=O)CON=C(C)C", "note": "[active compound 2.3.1.3]", "values": [{"measurement": "Nodules", "setting": "Peas (Field Peas VNS); 3 g of a.s./ha", "result": 41.5, "unit": "number/plant"}, {"measurement": "Dry matter root", "setting": "Peas (Field Peas VNS); 3 g of a.s./ha", "result": 849, "unit": "mg/plant"}, {"measurement": "Dry matter shoot", "setting": "Peas (Field Peas VNS); 3 g of a.s./ha", "result": 1064, "unit": "mg/plant"}, {"measurement": "Nodules", "setting": "Peas (Field Peas VNS); 30 g of a.s./ha", "result": 39.4, "unit": "number/plant"}, {"measurement": "Dry matter root", "setting": "Peas (Field Peas VNS); 30 g of a.s./ha", "result": 704, "unit": "mg/plant"}, {"measurement": "Dry matter shoot", "setting": "Peas (Field Peas VNS); 30 g of a.s./ha", "result": 795, "unit": "mg/plant"}, {"measurement": "Nodules", "setting": "Peas (Field Peas VNS); 300 g of a.s./ha", "result": 56.1, "unit": "number/plant"}, {"measurement": "Dry matter root", "setting": "Peas (Field Peas VNS); 300 g of a.s./ha", "result": 945, "unit": "mg/plant"}, {"measurement": "Dry matter shoot", "setting": "Peas (Field Peas VNS); 300 g of a.s./ha", "result": 1209, "unit": "mg/plant"}, {"measurement": "Dry matter (shoot + root)", "setting": "[1]; 0.001 mg/pot", "result": 2.65, "unit": "g/pot"}, {"measurement": "Nodules", "setting": "[1]; 0.001 mg/pot", "result": 31, "unit": "number/pot"}, {"measurement": "Dry matter (shoot + root)", "setting": "[1]; 0.003 mg/pot", "result": 3.07, "unit": "g/pot"}, {"measurement": "Nodules", "setting": "[1]; 0.003 mg/pot", "result": 68, "unit": "number/pot"}, {"measurement": "Dry matter (shoot + root)", "setting": "[1]; 0.010 mg/pot", "result": 3.00, "unit": "g/pot"}, {"measurement": "Nodules", "setting": "[1]; 0.010 mg/pot", "result": 66, "unit": "number/pot"}, {"measurement": "Dry matter (shoot + root)", "setting": "[1]; 0.030 mg/pot (insect attack)", "result": 2.32, "unit": "g/pot"}, {"measurement": "Nodules", "setting": "[1]; 0.030 mg/pot (insect attack)", "result": 30, "unit": "number/pot"}, {"measurement": "Dry matter (shoot + root)", "setting": "[1]; 0.100 mg/pot", "result": 2.52, "unit": "g/pot"}, {"measurement": "Nodules", "setting": "[1]; 0.100 mg/pot", "result": 59, "unit": "number/pot"}, {"measurement": "Dry matter (shoot + root)", "setting": "[1]; 0.300 mg/pot", "result": 3.13, "unit": "g/pot"}, {"measurement": "Nodules", "setting": "[1]; 0.300 mg/pot", "result": 76, "unit": "number/pot"}, {"measurement": "Nodules", "setting": "[2]; 0.003 mg of a.s./pot; procedure as in 3 a)", "result": 72, "unit": "number/pot"}, {"measurement": "Nodules", "setting": "[2]; 0.030 mg of a.s./pot; procedure as in 3 a)", "result": 83, "unit": "number/pot"}, {"measurement": "Nodules", "setting": "[2]; 0.300 mg of a.s./pot; procedure as in 3 a)", "result": 69, "unit": "number/pot"}, {"measurement": "Seeds of the highest quality level", "setting": "[3]; [6]", "result": 124, "unit": "%"}, {"measurement": "Yield of groundnuts", "setting": "[3]; [6]", "result": 108, "unit": "%"}, {"measurement": "Seeds of the highest quality level", "setting": "[3]; [7]", "result": 121, "unit": "%"}, {"measurement": "Yield of groundnuts", "setting": "[3]; [7]", "result": 109, "unit": "%"}, {"measurement": "Seeds of the highest quality level", "setting": "[3]; [8]", "result": 113, "unit": "%"}, {"measurement": "Yield of groundnuts", "setting": "[3]; [8]", "result": 124, "unit": "%"}, {"measurement": "Seeds of the highest quality level", "setting": "[3]; [9]", "result": 95, "unit": "%"}, {"measurement": "Yield of groundnuts", "setting": "[3]; [9]", "result": 121, "unit": "%"}, {"measurement": "Seeds of the highest quality level", "setting": "[3]; [10]", "result": 113, "unit": "%"}, {"measurement": "Yield of groundnuts", "setting": "[3]; [10]", "result": 104, "unit": "%"}, {"measurement": "Seeds of the highest quality level", "setting": "[3]; [11]", "result": 84, "unit": "%"}, {"measurement": "Yield of groundnuts", "setting": "[3]; [11]", "result": 121, "unit": "%"}, {"measurement": "Seeds of the highest quality level", "setting": "[3]; [12]", "result": 103, "unit": "%"}, {"measurement": "Yield of groundnuts", "setting": "[3]; [12]", "result": 113, "unit": "%"}, {"measurement": "Seeds of the highest quality level", "setting": "[3]; [13]", "result": 113, "unit": "%"}, {"measurement": "Yield of groundnuts", "setting": "[3]; [13]", "result": 120, "unit": "%"}, {"measurement": "Seeds of the highest quality level", "setting": "[3]; [14]", "result": 108, "unit": "%"}, {"measurement": "Yield of groundnuts", "setting": "[3]; [14]", "result": 113, "unit": "%"}, {"measurement": "Total N (shoot + root)", "setting": "[4]; 0.003 mg of a.s./pot", "result": "109 % of control"}, {"measurement": "Nodules", "setting": "[4]; 0.003 mg of a.s./pot", "result": 60, "unit": "number/pot"}, {"measurement": "Total N (shoot + root)", "setting": "[4]; 0.030 mg of a.s./pot", "result": "108 % of control"}, {"measurement": "Nodules", "setting": "[4]; 0.030 mg of a.s./pot", "result": 62, "unit": "number/pot"}, {"measurement": "Total N (shoot + root)", "setting": "[4]; 0.300 mg of a.s./pot", "result": "118 % of control"}, {"measurement": "Nodules", "setting": "[4]; 0.300 mg of a.s./pot", "result": 73, "unit": "number/pot"}, {"measurement": "Dry matter (shoot + root)", "setting": "[5]; 0.03 mg/pot", "result": 3.2, "unit": "g/pot"}, {"measurement": "Nodules", "setting": "[5]; 0.03 mg/pot", "result": 28, "unit": "number/pot"}, {"measurement": "Total N (total nitrogen in shoot + root)", "setting": "[5]; 0.03 mg/pot", "result": 75.0, "unit": "mg/pot"}, {"measurement": "Dry matter (shoot + root)", "setting": "[5]; 0.30 mg/pot", "result": 4.0, "unit": "g/pot"}, {"measurement": "Nodules", "setting": "[5]; 0.30 mg/pot", "result": 127, "unit": "number/pot"}, {"measurement": "Total N (total nitrogen in shoot + root)", "setting": "[5]; 0.30 mg/pot", "result": 120.5, "unit": "mg/pot"}, {"measurement": "Dry matter (shoot + root)", "setting": "[5]; 3.00 mg/pot", "result": 3.1, "unit": "g/pot"}, {"measurement": "Nodules", "setting": "[5]; 3.00 mg/pot", "result": 99, "unit": "number/pot"}, {"measurement": "Total N (total nitrogen in shoot + root)", "setting": "[5]; 3.00 mg/pot", "result": 109.5, "unit": "mg/pot"}, {"measurement": "shoot growth (fresh shoot weight)", "setting": "rape (Petranova)", "result": "shoot growth was promoted in nearly all cases"}]}]}
